This experiment relates to American upland cotton. As to the kind of experiment: Spray treatment of mature American upland cotton, evaluated 10, 14 and 21 days after treatment. The experiment is classed as in vivo.
The mark [1] stands for this setting: 10 days after treatment, (+) EBNG = 0.13 lb/acre.
The mark [2] stands for this setting: 14 days after treatment, (+) EBNG = 0.13 lb/acre.
[3] abbreviates: 21 days after treatment, (+) EBNG = 0.13 lbs/acre.

Take `CCC(NC(=N)N[N+](=O)[O-])c1ccccc1` (single isomer, unassigned; (+)) [(+) EBNG, (+)-1-(α-ethylbenzyl)-3-nitroguanidine]: under setting [1], the “% Dead Leaves On Plants” value was determined as 8.3% and the “% Dropped Leaves” value came to 90.0%. Under setting [2], the “% Dead Leaves On Plants” value was found to be 5.7%, the “% Dropped Leaves” value was found to be 93.0%, the “% New Growth Leaves” value was 1.0% and the “% Open Fruits” value was 96.0%. For the same molecule, under setting [3], the “% New Growth Leaves” value is 3.7% and the “% Open Fruits” value turned out to be 98.3%.

(Values after patent US20030158041A1, “Methods of and compositions for plant defoliation” (priority 2001, published 2003).)
